For one data set, the target named is hCA I (Homo sapiens, UniProt P00915). The data set can be described thus: hCA I inhibition assay (esterase activity). Type of data set: biochemical. The settings on record: human erythrocyte hCA I.
Another data set concerns the target hCA II (Homo sapiens, UniProt P00918). The data set can be described thus: hCA II inhibition assay (esterase activity). Type of data set: biochemical. The settings on record: for IC50 / Ki: human erythrocyte hCA II, esterase activity.
Data set [1] is described as follows: ABTS radical cation scavenging assay. To be noted: for IC50 ABTS method: ABTS radical scavenging; for antioxidant activity (in words): ABTS scavenging and Fe reduction, compared to BHT, BHA, α-tocopherol; for ABTS radical scavenging (λ734): absorbance at 734 nm, 30 μg/mL concentration. On the procedure: Antioxidant capacity was determined using the ABTS radical cation scavenging method ABTS and potassium persulfate (K2S2O8) were mixed in equal proportions and incubated at room temperature to generate the radical cation. The resulting solution was diluted with ethanol, and the absorbance of the control was adjusted to 0.928 ± 0.025 at 734 nm. Different concentrations of the compounds were prepared, added to test tubes, and adjusted with 0.2 mL of ethanol. To each tube, 0.8 mL of the ABTS radical solution was added. After incubation for 30 min, the absorbance of the remaining ABTS^•+ was measured at 734 nm.

Data set [2] is described as follows: Fe3+ reducing power assay (FRAP method). To be noted: absorbance at 700 nm, 30 μg/mL concentration. On the procedure: The ability of the carbamate compounds to reduce was evaluated using the FRAP assay. Various concentrations of the compounds were dissolved in deionized water to a final volume of 0.2 mL in test tubes. To each tube, 500 µL of potassium […] [K3Fe(CN)6] and 500 µL of phosphate buffer (0.2 M, pH 6.6) were added. The mixture was vortexed and incubated for 20 min at 50°C. Then, 500 µL of 10% trichloroacetic acid was added, and 500 µL of the upper layer of the solution was mixed with 100 µL of 0.1% FeCl3 and 500 µL of distilled water. The absorbance of the reducing effect was recorded using a spectrophotometer at 700 nm.

Data set [3] deals with Escherichia coli ATCC 43895. The data set can be described thus: Disc diffusion, Escherichia coli. Type of data set: cell-based. To be noted: read-out: inhibitory zone diameter, B3 Escherichia coli; for zone of inhibition at 1000 µg/mL: ATCC43895, compounds at 1000 μg/mL, disc diameter 5 mm, 24 h. The procedure:
All tests were conducted in triplicate.
(In general: A growth-free zone around the sample is the usual read-out of agar diffusion tests.)

The next data set concerns L929 cells. The data set can be described thus: Cytotoxicity, WST-1 assay in L929 cells. The format is cell-based. To be noted: WST-1, 24 h exposure, 6.25-500 μg/ml. (In general: Formazan colour is commonly taken as a measure of viable cells.)
For data set [4], the system named is Bacillus subtilis ATCC 6633. Description: Disc diffusion, Bacillus subtilis. To be noted: for zone of inhibition at 1000 µg/mL: ATCC6633, 24 h, read-out: inhibitory zone diameter, B1 Bacillus subtilis.
Data set [5] relates to Staphylococcus aureus ATCC 25923. The data set can be described thus: Disc diffusion, Staphylococcus aureus. To be noted: for zone of inhibition at 1000 µg/mL: ATCC25923, 24 h, read-out: inhibitory zone diameter, B2 Staphylococcus aureus.
The subject of data set [6] is Klebsiella pneumoniae ATCC 13883. Description: Disc diffusion, Klebsiella pneumoniae. To be noted: for zone of inhibition at 1000 µg/mL: ATCC13883, 24 h, read-out: inhibitory zone diameter, B4 Klebsiella pneumonia.
The test system of the next data set is A549 cell line. Description: Anticancer activity, WST-1 assay in A549 cells. The settings on record: WST-1, 24 h exposure, 6.25-500 μg/ml.
Data set [7] relates to Candida albicans ATCC 10231. Description: Disc diffusion, Candida albicans.
For data set [8], the system named is Yarrowia lipolytica ATCC 20460. Description: Disc diffusion, Yarrowia lipolytica.
Where [9] appears, read: positive control 10 µg disc^−1, disc diameter 5 mm.

The structures appear in SMILES notation. ≈ marks a conversion by molar mass, not a printed value. Entries after “also recorded” stand apart in the source; their conditions may differ.

Data on 11 compounds can be found in paper PMC11995831, “Synthesis of Novel Isoindolinones: Carbonic Anhydrase Inhibition Profiles, Antioxidant Potential, Antimicrobial Effect, Cytotoxicity and Anticancer Activity” (Journal of Biochemical and Molecular Toxicology, 2025).

Chain of hCA I (P00915 whole entry): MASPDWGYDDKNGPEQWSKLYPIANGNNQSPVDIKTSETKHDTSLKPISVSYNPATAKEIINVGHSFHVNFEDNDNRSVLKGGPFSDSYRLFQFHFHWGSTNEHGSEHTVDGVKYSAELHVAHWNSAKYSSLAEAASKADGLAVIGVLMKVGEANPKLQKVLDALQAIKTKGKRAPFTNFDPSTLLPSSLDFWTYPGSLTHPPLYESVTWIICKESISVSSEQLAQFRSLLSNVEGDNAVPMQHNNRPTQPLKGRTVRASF

One may read the IC50 as the midpoint of a concentration-inhibition curve. The Ki is the dissociation constant of the complex between target and ligand, obtained from inhibition or displacement. A lower Ki goes with higher affinity. Take `CCOS(=O)(=O)N1C(=O)c2ccccc2C1(O)c1ccccc1` (centres unmarked) [2a, Ethyl1‐hydroxy‐3‐oxo‐1‐phenylisoindoline‐2‐sulfonate]: the 50% inhibitory concentration (IC50) on hCA I amounted to 24.3 ± 1.98 nM; on hCA II it was 28.84 ± 0.151 nM. The Ki at hCA I stood at 22 ± 9.21 nM. The “IC50 ABTS method” value in [1] was determined as 231.00 µg/mL. The “antioxidant activity (in words)” value in [1] was “lowest activity”. Also, the “ABTS radical scavenging (λ734)” value in [1] is 0.835 ± 0.024. Also, the “Fe^3+-Fe^2+ reducing (λ700)” value in data set [2] was 1.168 ± 0.058. Moreover, the zone of inhibition at 1000 µg/mL in data set [3] worked out at 9 mm; in data set [4], 7 mm; in [5], 7 mm; in data set [6] it was 8 mm. For the same compound, the “cell proliferation of L929 cells compared with control group (in words)” value with L929 cells was “increased cell proliferation”. Further, the “anticancer activity against A549 cells (in words)” value with A549 cell line is on record as “dose‐dependent anticancer activity; also recorded: demonstrated inhibitory effects at high doses”.
For `CCCOS(=O)(=O)N1C(=O)c2ccccc2C1(O)c1ccccc1` (centres unmarked) [2b, Propyl1‐hydroxy‐3‐oxo‐1‐phenylisoindoline‐2‐sulfonate], the IC50 against hCA I was found to be 42 ± 1.35 nM; at hCA II, 231 ± 1 nM. Further, the figures for the Ki at hCA I and on hCA II were 49.5 ± 12.1 nM and 160 ± 46.6 nM, respectively. Moreover, on hCA II (2b compared with 2d, Ki hCA II), the “increase of activity on hCA II with n-propanol (2b) instead of n-butanol (2d)” value is on record as 1.56 fold. Moreover, the “IC50 ABTS method” value in [1] was 173.25 µg/mL. Moreover, the “ABTS radical scavenging (λ734)” value in data set [1] is 0.802 ± 0.072. In addition, the “Fe^3+-Fe^2+ reducing (λ700)” value in data set [2] was determined as 1.260 ± 0.079. Besides, the zone of inhibition at 1000 µg/mL in data set [3] came to 10 mm; in [4] it was 11 mm; in data set [5], 8 mm; in data set [6], 10 mm.
As to `CC(C)OS(=O)(=O)N1C(=O)c2ccccc2C1(O)c1ccccc1` (centres unmarked) [2c, Isopropyl1‐hydroxy‐3‐oxo‐1‐phenylisoindoline‐2‐sulfonate], the concentration for half-maximal inhibition (IC50) against hCA I came to 12.6 ± 0.37 nM; against hCA II it was 13.02 ± 0.041 nM. The Ki at hCA I amounted to 11.5 ± 4.18 nM; on hCA II, 9.32 ± 2.35 nM. For the same compound, the “IC50 ABTS method” value in data set [1] stood at 40.76 µg/mL. The “ABTS radical scavenging (λ734)” value in data set [1] amounted to 0.549 ± 0.049. For the same compound, the “Fe^3+-Fe^2+ reducing (λ700)” value in [2] was found to be 1.323 ± 0.133. Also, the zone of inhibition at 1000 µg/mL in data set [3] is 18 mm; in data set [4] it was 16 mm; in data set [5], 19 mm; in [6] it was 17 mm. Also, the “cell proliferation of L929 cells compared with control group (in words)” value in the data set with L929 cells was “increased cell proliferation”.
For the compound `CCCCOS(=O)(=O)N1C(=O)c2ccccc2C1(O)c1ccccc1` (centres unmarked) [2d, Butyl1‐hydroxy‐3‐oxo‐1‐phenylisoindoline‐2‐sulfonate], the half-inhibitory concentration (IC50) on hCA I was found to be 75.7 ± 1.21 nM; on hCA II, 86.37 ± 0.338 nM. Also, the Ki at hCA I worked out at 87.1 ± 35.2 nM; at hCA II, 251 ± 37.1 nM. In [1], the “IC50 ABTS method” value worked out at 99.00 µg/mL. For the same compound, the “ABTS radical scavenging (λ734)” value in [1] is reported as 0.719 ± 0.032. Besides, the “Fe^3+-Fe^2+ reducing (λ700)” value in data set [2] is 1.278 ± 0.059. Also, the zone of inhibition at 1000 µg/mL in [3] was found to be 13 mm; in [4] it was 12 mm; in data set [5] it was 14 mm; in data set [6], 12 mm. The “cell proliferation of L929 cells compared with control group (in words)” value in the data set with L929 cells is recorded as “increased cell proliferation”.
On to `CC(C)COS(=O)(=O)N1C(=O)c2ccccc2C1(O)c1ccccc1` (centres unmarked) [2e, Isobutyl1‐hydroxy‐3‐oxo‐1‐phenylisoindoline‐2‐sulfonate], for which the IC50 is 11.8 ± 0.132 nM against hCA I and 23.85 ± 0.152 nM at hCA II. For the same compound, the Ki at hCA I was found to be 33.3 ± 15.1 nM; on hCA II it was 37.5 ± 14.7 nM. Moreover, in data set [1], the “IC50 ABTS method” value was found to be 53.30 µg/mL. The “ABTS radical scavenging (λ734)” value in [1] turned out to be 0.624 ± 0.040. The “Fe^3+-Fe^2+ reducing (λ700)” value in [2] is recorded as 1.316 ± 0.023. For the same compound, the zone of inhibition at 1000 µg/mL is 14 mm in data set [3], 10 mm in [4], 13 mm in [5] and 11 mm in data set [6].
Take `O=C1c2ccccc2C(O)(c2ccccc2)N1S(=O)(=O)OC1CCCCC1` (centres unmarked) [2f, Cyclohexyl1‐hydroxy‐3‐oxo‐1‐phenylisoindoline‐2‐sulfonate]: the 50% inhibitory concentration (IC50) was determined as 11.2 ± 0.291 nM at hCA I and 27.8 ± 0.17 nM against hCA II. In addition, the values for the inhibition constant (Ki) at hCA I and at hCA II were 16.1 ± 4.14 nM and 14.9 ± 3.25 nM, respectively. In data set [1], the “IC50 ABTS method” value was determined as 27.72 µg/mL. Moreover, in data set [1], the “antioxidant activity (in words)” value is reported as “highest antioxidant activity”. Moreover, the “ABTS radical scavenging (λ734)” value in data set [1] was 0.426 ± 0.132. In addition, the “Fe^3+-Fe^2+ reducing (λ700)” value in data set [2] amounted to 1.485 ± 0.156. Moreover, the zone of inhibition at 1000 µg/mL in data set [3] came to 25 mm; in [7] (Candida albicans, ATCC10231, 24 h, read-out: inhibitory zone diameter, F1 Candida albicans), 19 mm; in [4] it was 20 mm; in data set [8] (Yarrowia lipolytica, ATCC20460, 24 h, read-out: inhibitory zone diameter, F2 Yarrowia lipolytica), 16 mm; in data set [5], 24 mm; in data set [6] it was 22 mm.
`CC1(C)S[C@@H]2[C@H](NC(=O)[C@H](N)c3ccccc3)C(=O)N2[C@H]1C(=O)O` [Ampicillin, reference compound]: the zone of inhibition at 10 µg/disc in data set [3] (ATCC43895, positive control 10 µg disc^−1, disc diameter 5 mm) was found to be 20 mm; in data set [4] (ATCC6633, read-out: inhibitory zone diameter, B1 Bacillus subtilis), 18 mm; in data set [5] (ATCC25923, read-out: inhibitory zone diameter, B2 Staphylococcus aureus) it was 21 mm; in data set [6] (ATCC13883, read-out: inhibitory zone diameter, B4 Klebsiella pneumonia) it was 19 mm.
As for `COc1ccc(O)c(C(C)(C)C)c1` [BHA, reference compound], in [1], the “IC50 ABTS method” value came to 12.83 µg/mL (≈ 71.2 µM) and the “ABTS radical scavenging (λ734)” value was determined as 0.201 ± 0.040. In data set [2], the “Fe^3+-Fe^2+ reducing (λ700)” value turned out to be 2.625 ± 0.241.
As for `Cc1cc(C(C)(C)C)c(O)c(C(C)(C)C)c1` [BHT, reference compound], in [1], the “IC50 ABTS method” value was found to be 16.11 µg/mL (≈ 73.1 µM) and the “ABTS radical scavenging (λ734)” value was determined as 0.293 ± 0.094. In addition, the “Fe^3+-Fe^2+ reducing (λ700)” value in [2] turned out to be 2.510 ± 0.111.
On to `C[C@@H]1[C@H](O)[C@@H](C)/C=C/C=C/CC/C=C/C=C/C=C/C=C/C(O[C@H]2O[C@H](C)[C@@H](O)[C@H](N)[C@@H]2O)CC2O[C@](O)(CC(O)C(O)CCC(O)CC(O)CC(O)CC(=O)O[C@H]1C)CC(O)C2C(=O)O` (some centres unmarked) [Nystatin, reference compound], for which, in data set [7] (setting [9]), the “inhibitory zone diameter, F1 Candida albicans” value came out at 18 mm. For the same compound, the “inhibitory zone diameter, F2 Yarrowia lipolytica” value in [8] (setting [9]) is 15 mm.
Regarding `Cc1c(C)c2c(c(C)c1O)CC[C@@](C)(CCC[C@H](C)CCC[C@H](C)CCCC(C)C)O2` [α‐Tokoferol, α‐tocopherol, reference compound], in data set [1], the “IC50 ABTS method” value turned out to be 18.23 µg/mL (≈ 42.3 µM) and the “ABTS radical scavenging (λ734)” value was 0.319 ± 0.101. For the same compound, the “Fe^3+-Fe^2+ reducing (λ700)” value in [2] was found to be 1.465 ± 0.284.
